Test results taken from ChEMBL document CHEMBL1777782, “Indole 5-carboxamide Thumb Pocket I inhibitors of HCV NS5B polymerase with nanomolar potency in cell-based subgenomic replicons (part 2): central amino acid linker and right-hand-side SAR studies” (Bioorg Med Chem Lett, 2011).
Values after ≈ are worked out from the molar mass of the structure shown.

Columns and labels:
[1] = Inhibition of HCV 1b NS5B RNA dependent RNA polymerase by scintillation proximity assay; set-up: species or system Hepacivirus hominis
Hepatitis C virus = assay: Antiviral activity against Hepatitis C virus genotype 1b infected in human Huh-7 cells assessed as inhibition of viral replication after 72 hrs; assay type: functional, organism-based, Hepacivirus hominis; conditions: Huh-7, 72 h
[2] = Half life in human liver microsomes at 10 uM
[3] = Permeability across apical to basolateral side in human Caco2 cells; conditions: Caco-2
[4] = Selectivity ratio for polio virus RNA-dependent RNA polymerase to HCV 1b NS5B RNA dependent RNA polymerase
[5] = Selectivity ratio for mammalian DNA-dependent RNA polymerase II to HCV 1b NS5B RNA dependent RNA polymerase
physchem = conditions: phosphate buffer, pH 7.2

## CC(=O)N1CCCC(NC(=O)c2ccc3c(C4CCCCC4)c(-c4ccccn4)n(C)c3c2)(C(=O)Nc2ccc(/C=C/C(=O)O)cc2)C1 (racemic)
[1]
  IC50: 230 nM
Hepatitis C virus
  EC50: 230 nM
[2]; liver microsomes
  half-life at 10 µM: 256 min
[3]
  Papp A→B: 5.5 ×10⁻⁶ cm/s
[4]
  Ratio: > 150
[5]
  Ratio: > 150
physchem
  solubility thermodynamic at 24 h: 24 µg/mL (≈ 37 µM)

## Cc1c(C(N)=O)sc2ccc(NC(=O)C3(NC(=O)c4ccc5c(C6CCCCC6)c(-c6ccccn6)n(C)c5c4)CCC3)cc12
[1]
  IC50: 86 nM
Hepatitis C virus
  EC50: 76 nM
[2]; liver microsomes
  half-life at 10 µM: 71 min
[4]
  Ratio: > 150
[5]
  Ratio: > 150

## Cn1c(-c2ccccn2)c(C2CCCCC2)c2ccc(C(=O)NC(C)(C)C(=O)Nc3ccc(NC(=O)C(=O)O)cc3)cc21
[1]
  IC50: 34 nM
Hepatitis C virus
  EC50: 2500 nM
[4]
  Ratio: > 150
[5]
  Ratio: > 150

## Cn1c(-c2ccccn2)c(C2CCCCC2)c2ccc(C(=O)NC3(C(=O)Nc4ccc(/C=C/C(=O)O)cc4)CCNCC3)cc21
[1]
  IC50: 13 nM
Hepatitis C virus
  EC50: 2000 nM
[4]
  Ratio: > 150
[5]
  Ratio: > 150

## Cn1c(-c2ccccn2)c(C2CCCCC2)c2ccc(C(=O)NC(C)(C)C(=O)Nc3ccc4sc(C(=O)O)cc4c3)cc21
[1]
  IC50: 23 nM
Hepatitis C virus
  EC50: 88 nM
[2]; liver microsomes
  half-life at 10 µM: 49 min
[3]
  Papp A→B: 0.4 ×10⁻⁶ cm/s
[4]
  Ratio: > 150
[5]
  Ratio: > 150
physchem
  solubility thermodynamic at 24 h: 468 µg/mL (≈ 787 µM)

## Cn1c(-c2ccccn2)c(C2CCCCC2)c2ccc(C(=O)NC(C)(C)C(=O)Nc3ccc(-c4ccc(C(=O)O)o4)cc3)cc21
[1]
  IC50: 152 nM
Hepatitis C virus
  EC50: 145 nM
[2]; liver microsomes
  half-life at 10 µM: 43 min
[3]
  Papp A→B: 0.2 ×10⁻⁶ cm/s
[4]
  Ratio: > 150
[5]
  Ratio: > 150
physchem
  solubility thermodynamic at 24 h: > 564 µg/mL

## CC(=O)N1CC[C@@](NC(=O)c2ccc3c(C4CCCCC4)c(-c4ccccn4)n(C)c3c2)(C(=O)Nc2ccc(/C=C/C(=O)O)cc2)C1
[1]
  IC50: 24 nM
Hepatitis C virus
  EC50: 212 nM
[4]
  Ratio: > 150
[5]
  Ratio: > 150

## Cn1c(-c2ccccn2)c(C2CCCCC2)c2ccc(C(=O)NC3(C(=O)Nc4ccc(/C=C/C(=O)O)cc4)CCOCC3)cc21
[1]
  IC50: 68 nM
Hepatitis C virus
  EC50: 170 nM
[2]; liver microsomes
  half-life at 10 µM: 41 min
[3]
  Papp A→B: 5.7 ×10⁻⁶ cm/s
[4]
  Ratio: > 150
[5]
  Ratio: > 150
physchem
  solubility thermodynamic at 24 h: 15 µg/mL (≈ 24.7 µM)

## CN1CC[C@](NC(=O)c2ccc3c(C4CCCCC4)c(-c4ccccn4)n(C)c3c2)(C(=O)Nc2ccc(/C=C/C(=O)O)cc2)C1
[1]
  IC50: 66 nM
Hepatitis C virus
  EC50: 78 nM
[2]; microsomes
  half-life at 10 µM: 46 min
[3]
  Papp A→B: 7.8 ×10⁻⁶ cm/s
[4]
  Ratio: > 150
[5]
  Ratio: > 150
physchem
  solubility thermodynamic at 24 h: 20 µg/mL (≈ 33 µM)

## Cc1c(C(=O)O)sc2ccc(NC(=O)C3(NC(=O)c4ccc5c(C6CCCCC6)c(-c6ccccn6)n(C)c5c4)CCN(C)CC3)cc12
[1]
  IC50: 27 nM
Hepatitis C virus
  EC50: 58 nM
[2]; liver microsomes
  half-life at 10 µM: 185 min
[3]
  Papp A→B: 0.8 ×10⁻⁶ cm/s
[4]
  Ratio: > 150
[5]
  Ratio: > 150
physchem
  solubility thermodynamic at 24 h: 1 µg/mL (≈ 1.51 µM)

## Cn1c(-c2ccccn2)c(C2CCCCC2)c2ccc(C(=O)NC3(C(=O)Nc4ccc(S(N)(=O)=O)cc4)CCC3)cc21
[1]
  IC50: 312 nM
Hepatitis C virus
  EC50: 350 nM
[2]; liver microsomes
  half-life at 10 µM: 15 min
[4]
  Ratio: > 150
[5]
  Ratio: > 150
physchem
  solubility thermodynamic at 24 h: < 0.1 µg/mL

## Cn1c(-c2ccccn2)c(C2CCCCC2)c2ccc(C(=O)N[C@]3(C(=O)Nc4ccc(/C=C/C(=O)O)cc4)CCNC3)cc21
[1]
  IC50: 55 nM
Hepatitis C virus
  EC50: 194 nM
[2]; liver microsomes
  half-life at 10 µM: 191 min
[3]
  Papp A→B: 0.1 ×10⁻⁶ cm/s
[4]
  Ratio: > 150
[5]
  Ratio: > 150
physchem
  solubility thermodynamic at 24 h: 19 µg/mL (≈ 32.1 µM)

## Cn1c(-c2ccccn2)c(C2CCCCC2)c2ccc(C(=O)N[C@]3(C(=O)Nc4ccc(/C=C/C(=O)O)cc4)CCCNC3)cc21
[1]
  IC50: 40 nM
Hepatitis C virus
  EC50: 220 nM
[4]
  Ratio: > 150
[5]
  Ratio: > 150

## Cn1c(-c2ccccn2)c(C2CCCCC2)c2ccc(C(=O)N[C@@]3(C(=O)Nc4ccc(-c5cncnc5)cc4)CCNC3)cc21
[1]
  IC50: 64 nM
Hepatitis C virus
  EC50: 130 nM
[2]; liver microsomes
  half-life at 10 µM: 64 min
[3]
  Papp A→B: < 0.1 ×10⁻⁶ cm/s
[4]
  Ratio: > 150
[5]
  Ratio: > 150
physchem
  solubility thermodynamic at 24 h: 9 µg/mL (≈ 15 µM)

## Cc1c(C(=O)O)sc2ccc(NC(=O)[C@]3(NC(=O)c4ccc5c(C6CCCCC6)c(-c6ccccn6)n(C)c5c4)CCCNC3)cc12
[1]
  IC50: 35 nM
Hepatitis C virus
  EC50: 60 nM
[2]; microsomes
  half-life at 10 µM: 93 min

## Cn1c(-c2ccccn2)c(C2CCCCC2)c2ccc(C(=O)N[C@@]3(C(=O)Nc4ccc(/C=C/C(=O)O)cc4)CCNC3)cc21
[1]
  IC50: 23 nM
Hepatitis C virus
  EC50: 83 nM
[2]; liver microsomes
  half-life at 10 µM: > 300 min
[3]
  Papp A→B: 0.5 ×10⁻⁶ cm/s
[4]
  Ratio: > 150
[5]
  Ratio: > 150
physchem
  solubility thermodynamic at 24 h: 10 µg/mL (≈ 16.9 µM)

## Cn1c(-c2ccccn2)c(C2CCCCC2)c2ccc(C(=O)NC(C)(C)C(=O)Nc3ccc(-c4nc(C(=O)O)cs4)cc3)cc21
[1]
  IC50: 154 nM
Hepatitis C virus
  EC50: 420 nM
[2]; liver microsomes
  half-life at 10 µM: 55 min
[3]
  Papp A→B: < 0.1 ×10⁻⁶ cm/s
[4]
  Ratio: > 150
[5]
  Ratio: > 150
physchem
  solubility thermodynamic at 24 h: 662 µg/mL (≈ 1060 µM)

## Cn1c(-c2ccccn2)c(C2CCCCC2)c2ccc(C(=O)NC(C)(C)C(=O)Nc3ccc(-c4ccc(C(N)=O)o4)cc3)cc21
[1]
  IC50: 330 nM
Hepatitis C virus
  EC50: 96 nM
[2]; liver microsomes
  half-life at 10 µM: 19 min
[4]
  Ratio: > 150
[5]
  Ratio: > 150
physchem
  solubility thermodynamic at 24 h: < 0.1 µg/mL

## CCN1CC[C@@](NC(=O)c2ccc3c(C4CCCCC4)c(-c4ccccn4)n(C)c3c2)(C(=O)Nc2ccc(/C=C/C(=O)O)cc2)C1
[1]
  IC50: 23 nM
Hepatitis C virus
  EC50: 50 nM
[2]; liver microsomes
  half-life at 10 µM: 61 min
[3]
  Papp A→B: 5.6 ×10⁻⁶ cm/s
[4]
  Ratio: > 150
[5]
  Ratio: > 150

## Cn1c(-c2ccccn2)c(C2CCCCC2)c2ccc(C(=O)NC(C)(C)C(=O)Nc3ccc(-c4nc(C(N)=O)cs4)cc3)cc21
[1]
  IC50: 317 nM
Hepatitis C virus
  EC50: 150 nM
[2]; liver microsomes
  half-life at 10 µM: 16 min
[4]
  Ratio: > 150
[5]
  Ratio: > 150
physchem
  solubility thermodynamic at 24 h: < 0.1 µg/mL

## Cn1c(-c2ccccn2)c(C2CCCCC2)c2ccc(C(=O)NC3(C(=O)Nc4ccc(-c5cnc(N)nc5)cc4)CCC3)cc21
[1]
  IC50: 745 nM
Hepatitis C virus
  EC50: 180 nM
[4]
  Ratio: > 150
[5]
  Ratio: > 150
physchem
  solubility thermodynamic at 24 h: 0.9 µg/mL (≈ 1.5 µM)

## CN1CCCC(NC(=O)c2ccc3c(C4CCCCC4)c(-c4ccccn4)n(C)c3c2)(C(=O)Nc2ccc(/C=C/C(=O)O)cc2)C1 (racemic)
[1]
  IC50: 43 nM
Hepatitis C virus
  EC50: 66 nM
[4]
  Ratio: > 150
[5]
  Ratio: > 150

## CC(C)(NC(=O)c1ccc2c(c1)nc(-c1ccoc1)n2C1CCCCC1)C(=O)Nc1ccc(/C=C/C(=O)O)cc1
[1]
  IC50: 40 nM

## Cn1c(C(N)=O)cc2cc(NC(=O)C(C)(C)NC(=O)c3ccc4c(C5CCCCC5)c(-c5ccccn5)n(C)c4c3)ccc21
[1]
  IC50: 165 nM
Hepatitis C virus
  EC50: 97 nM
[2]; liver microsomes
  half-life at 10 µM: 21 min
[4]
  Ratio: > 150
[5]
  Ratio: > 150
physchem
  solubility thermodynamic at 24 h: < 0.1 µg/mL

## CN1CCC(NC(=O)c2ccc3c(C4CCCCC4)c(-c4ccccn4)n(C)c3c2)(C(=O)Nc2ccc3sc(C(=O)O)cc3c2)CC1
[1]
  IC50: 17 nM
Hepatitis C virus
  EC50: 220 nM
[4]
  Ratio: > 150
[5]
  Ratio: > 150

## Cn1c(-c2ccccn2)c(C2CCCCC2)c2ccc(C(=O)NC3(C(=O)Nc4ccc(/C=C/C(=O)O)cc4)CCCCC3)cc21
[1]
  IC50: 194 nM
Hepatitis C virus
  EC50: 129 nM
[2]; liver microsomes
  half-life at 10 µM: 61 min
[4]
  Ratio: > 150
[5]
  Ratio: > 150
physchem
  solubility thermodynamic at 24 h: 5 µg/mL (≈ 8.27 µM)
